≈ marks a conversion by molar mass, not a printed value.

For data set [1] the following is noted: cited from earlier work.
The subject of data set [2] is CD-1 mice. The data set is described as follows: Post-surgical paw incision, mechanical allodynia (von Frey), morphine anti-nociception. The data set is classed as in vivo. The conditions noted are these: 1 mg/kg inhibitor i.v., 24 h, then 1–3.2 mg/kg morphine s.c.; peak %MPE; 95% CI in parentheses. On the procedure:
Mechanical thresholds were determined prior to surgery using calibrated von Frey filaments (Ugo Basile, Varese, Italy) with the up-down method and four measurements after the first response per mouse as in Ref.[27] and our previously published work (e.g. Ref.[28]). The mice were housed in a homemade apparatus with Plexiglas walls and ceiling and a wire mesh floor (3-inch wide 4-inch long 3-inch high with 0.25-inch wire mesh). The surgery was then performed by anesthesia with ~ 2% isoflurane in standard air, preparation of the left plantar hind paw with iodine and 70% ethanol, and a 5-mm incision made through the skin and fascia with a no. 11 scalpel. The muscle was elevated with curved forceps leaving the origin and insertion intact, and the muscle was split lengthwise using the scalpel. The wound was then closed with 5–0 polyglycolic acid sutures. Mice were then injected with inhibitor or Vehicle control and left to recover for 24 h. Our intrathecal (i.t.) injection protocol is reported in Refs.[13],[29]; briefly, the injection was made in awake and restrained animals with a 10 μL Hamilton syringe and 30 g needle (5–7 μL volume) between the L5-L6 vertebrae at a 45° angle, with placement validated by tail twitch. Since the injection was made through skin with no incision or other surgical intervention, repeated injection protocols were performed the same way. The next day, the mechanical threshold was again determined as described above. […] . No animals were excluded from these studies.

Data set [3] deals with CD-1 mice. The data set is described as follows: 52 °C tail-flick assay, morphine anti-nociception after Hsp90 inhibitor treatment. The format is in vivo. As to the method: (§1) Pre-injection tail-flick baselines were determined in a 52 °C tail-flick assay with a 10-s cutoff time (method also reported in Ref.[13]). […] No animals were excluded from these studies.
A short description of data set [4]: physchem. The conditions noted are these: pH 6.8, aqueous buffer, thermodynamic from solid.
Data set [5] is described as follows: in vitro. The format is in vitro ADME. The following applies: male, human, microsomes. On the procedure:
(§2) Metabolic stability of lead compounds was assessed in vitro by the method of Di et al.[32]. Briefly, mouse liver microsomes (Corning Life Sciences, Woburn, MA) were isolated from CD-1 mice (male mice, 8 − 10 weeks of age). Assays were conducted using 0.123 mg/mL protein concentration (total protein concentration in the microsomal solution) and 1.0 μM drug concentration under incubation conditions of 37 °C. Metabolic stability was determined following 0, 5, 15, 30, and 60 min of incubation time. The samples were analyzed by reversed phase LC using a triple quadrupole mass spectrometer. Compound specific transitions of parent ion to product ion were monitored and percent remaining calculated based on peak area of 5 − 60 min time points (relative to time zero). Half-life calculations were determined using the formula t½ = − ln(2)/k, where k (min^−1) is the turnover rate constant (the slope) estimated from a log − linear regression of the percentage compound remaining versus time.
Metabolic stability of the compounds in human liver microsomes was determined by the method described above using pooled human liver microsome preparations from 20 male donors (Corning Life Sciences, Woburn, MA). Assays were conducted as described above and the in vitro half-life of the compounds was calculated. […]

Data set [6] in a line: physchem. The format is physicochemical. As to the method: Distribution coefficient (LogD) was determined by the method of Wilson et al.[30]. Briefly, 5 µL volumes of test compounds diluted in DMSO were added to a mixture of equal volumes of 50 mM phosphate buffer and 1-octanol. The compounds were assayed using a 50 nM concentration in order to limit compound precipitation and to ensure that the assay values were maintained within the dynamic range of the LC–MS/MS instrumentation. Samples were vortex mixed at 800 rpm for 24 h. Subsequent to centrifugation at 14,000 rpm for 30 min, 1 µL of each layer was analyzed by LC–MS/MS. LogD was calculated using the peak areas obtained from each layer.
LC − MS/MS analysis was conducted using an Agilent (Santa Clara, CA) 6460 triple quadrupole mass spectrometer coupled with an Agilent liquid chromatography (LC) system. The LC system consists of a binary pump, degasser, column heater, and autosampler. Chromatographic separation was performed on a Waters Atlantis T3 3 µm 3.0 × 50 mm analytical column using a ballistic gradient of mobile phase consisting of 0.1% formic acid in water (A) and 0.1% formic acid in acetonitrile (B) at a flow rate of 0.75 mL/min. The mobile phase was heated to a temperature of 45 °C.

Data set [7] deals with T1, human delta opioid receptor (Homo sapiens, UniProt P41143).
T1 construct: membrane protein
The data set is described as follows: Competition radioligand binding vs 3H-diprenorphine, delta opioid receptor. The conditions noted are these: up to a 10 μM concentration.

The conditions of data set [8]: 1 and 10 mg/kg i.v.
The target in data set [9] is T2, human mu opioid receptor (Homo sapiens, UniProt P35372).
T2 construct: membrane protein
The format is binding. The conditions noted are these: up to a 10 μM concentration.

The subject of data set [10] is CD-1 mice. The data set is described as follows: Morphine anti-nociceptive tolerance and tolerance rescue (tail flick). The format is in vivo. The following applies: 3 days twice daily 10 mg/kg morphine s.c.; 1 mg/kg i.v. on day 3, 24 h; 10 mg/kg morphine s.c.; tail flick. As to the method:
as §1

The nature of data set [11]: in vivo. The following applies: CD-1, mouse, iv.
A short description of data set [12]: in vitro. The format is in vitro ADME, CD-1 mice. The conditions noted are these: male, CD-1, mouse, microsomes. As to the method:
as §2
LC − MS/MS analysis was conducted using an Agilent (Santa Clara, CA) 6460 triple quadrupole mass spectrometer coupled with an Agilent liquid chromatography (LC) system. The LC system consists of a binary pump, degasser, column heater, and autosampler. […]

The target of data set [13] is T3, human kappa opioid receptor (Homo sapiens, UniProt P41145).
T3 construct: membrane protein
The data set can be described thus: Competition radioligand binding vs 3H-diprenorphine, kappa opioid receptor. The conditions noted are these: up to a 10 μM concentration.

In data set [14] the test system is CD-1 mice. The conditions noted are these: mouse, in vivo.

Regarding `C=CCNC1=C2C[C@@H](C)C[C@H](OC)[C@H](O)[C@@H](C)/C=C(\C)[C@H](OC(N)=O)[C@@H](OC)/C=C\C=C(/C)C(=O)NC(=CC1=O)C2=O` [17-AAG], in data set [1], the “tolerability in clinical trials” value was “liver toxicity”.
By solubility is commonly meant how much of the substance goes into solution per volume. High values mean much dissolved substance, low ones little dissolved substance. The half-life is the time in which the quantity being followed falls by half. As usually defined, the logD is lipophilicity at a set pH, counting ionised and neutral species. Lower therefore signals lower lipophilicity. What is called AUC(0-inf) is the area under the concentration-time curve extrapolated to infinity. A high value points to more exposure. The Cmax is the highest concentration seen after dosing. For orientation: Tmax means the time at which the peak concentration occurs. As to `COC(=O)c1c(O)cc(O)c(Cl)c1CCc1ccccc1Cc1ccc(F)cc1` [KUNG65], in [2], the “A50 (morphine anti-nociceptive potency), paw incision, systemic inhibitor” value was 0.9 (0.5–1.2) mg/kg. Further, in data set [3] (1 mg/kg i.v., 24 h, 2 mg/kg naloxone i.p. 10 min, 3.2 mg/kg morphine s.c., tail flick), the “naloxone reversibility of inhibitor-enhanced morphine pain relief” value is given as “fully naloxone-reversible”. Besides, in [3] (1 mg/kg i.v., 48 h, then 3.2 mg/kg morphine s.c.), the “effect on morphine tail flick anti-nociception 48 h after treatment” value was “no effect”. Further, the “A50 (morphine anti-nociceptive potency), tail flick, systemic inhibitor” value in [3] (1 mg/kg inhibitor i.v., 24 h, then 1–5.6 mg/kg morphine s.c., peak %MPE, 95% CI in parentheses) was 1.9 (1.4–2.3) mg/kg. Also, in [3] (10 mg/kg i.v. vs 1 mg/kg i.v., 24 h, then 3.2 mg/kg morphine s.c.), the “effect of higher 10 mg/kg dose on morphine pain relief (tail flick)” value is recorded as “elevated morphine pain relief, it did so less than a 1 mg/kg dose”. In [3] (Grp94 CRISPR i.t., 1 mg/kg i.v. on day 9, 24 h, 3.2 mg/kg morphine s.c., tail flick), the “effect of spinal cord Grp94 CRISPR knockdown on benefit of systemic inhibitor” value is recorded as “abolished the benefit”. Further, in data set [4], the concentration in solution (solubility at 24 h) was 0.074 µM (≈ 0.0307 µg/mL). The compound also came in with a half-life at 1 µM in data set [5] of 144 min. Also, in data set [6], the log distribution coefficient (logD) at 24 h came out at 3.3. In data set [7], the “binding to delta opioid receptor (competition vs 3H-diprenorphine)” value is given as “no binding”. Moreover, the “exposure in the spinal cord” value in [8] was “very low exposure”. For the same compound, the “binding to mu opioid receptor (competition vs 3H-diprenorphine)” value in data set [9] was “no binding”. Moreover, the “rescue of established morphine tolerance, systemic inhibitor” value in data set [10] was “rescued established tolerance”. In data set [11] (1 mg/kg), the AUC(0-inf) is 0.245 µM·h, the Cmax was 418 nM, the Tmax turned out to be 4.98 min and the half-life was 36 min. Also, in data set [11] (10 mg/kg), the AUC(0-inf) stood at 0.46 µM·h, the Cmax was 1070 nM, the Tmax is 4.98 min and the half-life is 38.4 min. The half-life at 1 µM in data set [12] came out at 32 min. Besides, the “binding to kappa opioid receptor (competition vs 3H-diprenorphine)” value in data set [13] was “no binding”. For the same compound, the “effect on respiratory activity before and after morphine” value in data set [14] is “no effect on respiration before or after morphine injection”.

The values above are taken from PMC11208559 (Scientific Reports, 2024).
